Laboratory results published in US8288549B2, “Glycine B antagonist” (Merz Pharma GmbH & Co. KGaA, priority 2008, dated 2012).
pIC50: −log10 of the molar value. Structures can show the parent of a compound that is named as a salt.

Legend:
[1] = target: T1, NMDA receptor glycine B site (Rattus norvegicus, UniProt P35439); test: Whole cell patch-clamp recordings in cultured rat hippocampal neurons (NMDA/D-Serine evoked currents); assay type: cell-based; conditions: NMDA (200 μM) and D-Serine (1 μM), holding potential −70 mV, read-out: NMDA-PC-r-HIC-NAM - IC50
T1 construct: Hippocampi are then isolated from the brains of at least 8 embryos after decapitation; endogenous in cells; host or cells: primary cultured hippocampal neurons from E20 Sprague-Dawley rat embryos, 11-15 DIV
Protocol: Antagonistic potencies of the test compounds are functionally evaluated using electrophysiological whole cell patch-clamp recordings and/or fluorometric intracellular Ca^2+-imaging (FLIPR) screens.
Cell preparation is performed as described by Parsons, et al. (Neuropharmacology, 1998, 37(6), 719-727). The female Sprague-Dawley rat is anaesthetised by placing in a saturated CO2-euthanasia chamber under further quiet CO2-influx. Under these conditions the rat loses consciousness after a few seconds and is then sacrificed by cervical dislocation. After opening the abdominal cavity, embryos (E20) are removed and stored in ice cold Ca^2+- and Mg^2+-free Hank's Buffered Salt Solution (pH 7.3), containing 4 g/l glucose (HBSS-CMF). Hippocampi are then isolated from the brains of at least 8 embryos after decapitation, transferred into ice cold HBSS-CMF and washed 3 to 4 times.
Hippocampi are pre-incubated for 8 min with a 0.66% trypsin (Sigma-Aldrich) and 0.1% (20 U/ml) DNAase solution (Sigma-Aldrich) in Ca^2+-free Phosphate Buffered Saline (PBS-CF) and washed 3 times with HBSS-CMF. Cells are then mechanically dissociated by trituration in a PBS-CF solution containing 0.05% (10 U/ml) DNAase and 0.3% of the trypsin inhibitor ovomucoid (all from Sigma-Aldrich). The cells are then centrifuged at 180×g for 10 minutes, and the cell pellet re-suspended in basal Minimum essential medium (MEM, Invitrogen, Karlsruhe, Germany), again carefully triturated to ensure maximal dissociation and finally plated in the flexiPERM inserts (Thermo Fisher Scientific, Langenselbold, Germany) at a density of 15×10^3 cells/cm^2 (0.5 ml/insert) onto poly-DL-ornithine (Sigma) and mouse laminin (Invitrogen) pre-coated plastic petri dishes. After 1 hour the cells become attached to the bottom of the dish and the inserts may be removed. The cells are then nourished with 2 ml MEM supplemented with 5% foetal calf serum (FCS) and 5% horse serum and incubated at 37° C. with 95% air and 5% CO2 at 95% humidity. After 4 days in vitro (DIV) further glial mitosis is inhibited by adding 10 μl of AraC (5 μM endconcentration). The medium is completely exchanged after an additional 2 DIV and again, but only partly (50%), after 8 DIV. The cells are used for electrophysiological recordings after 11-15 DIV.
Cells are visualised using an inverted microscope and selected for patching based upon their position and morphology. Voltage clamp recordings are made in the whole cell configuration of the patch clamp technique at a holding potential of −70 mV with the aid of an EPC-10 amplifier in combination with pipette manipulator. Patch clamp pipettes are pulled from borosilicate glass using a horizontal puller (P-97 Puller, Sutter Instruments, USA) and, when filled with intracellular solution, have resistances of 1-4 MΩ.
Solutions are delivered via a home-made gravity driven very fast perfusion system (<10 ms) including valves to switch flow on and off in combination with a stepper motor-driven double-barreled theta glass application pipette in order to expose cells to either agonist-free or agonist-containing solutions in presence or absence of antagonist.
The intracellular solution used consists of: 120 mM CsCl, 10 mM EGTA, 1 mM MgCl2, 200 μM CaCl2, 10 mM glucose and 22 mM tetraethyl ammonium chloride (TEA-CL). The corresponding extracellular bath solution contains: 140 mM NaCl, 3 mM KCl, 10 mM glucose, 10 mM HEPES, 1.5 mM CaCl2 and 4.5 mM sucrose (all from Sigma-Aldrich) pH 7.3, and is supplemented with 0.3 μM tetrodotoxin (TTX, Tocris, Bristol, U.K.) to block voltage-activated sodium channels and 0.25 μM bicuculline (Sigma-Aldrich) to block GABAA receptors. […]

Compound	melting point	pIC50 [1]
Br.Br.NCCCC[C@H](Nc1nc2ccc(Cl)cc2cc1C(=O)O)C(=O)O	174 to 182 °C	
Nc1cc(C[C@H](Nc2nc3ccc(Cl)cc3cc2C(=O)O)C(=O)O)ccc1O	> 250 °C	
O=C(O)c1cc2cc(Cl)ccc2nc1N[C@@H](Cc1ccc(O)c(Cl)c1)C(=O)O	150 to 175 °C (dec.)	
O=C(O)c1ccc(CC(Nc2nc3ccc(Cl)cc3cc2C(=O)O)C(=O)O)cc1 (stereo not drawn)	> 180 °C (dec.)	
Nc1ccc(CC(Nc2nc3ccc(Cl)cc3cc2C(=O)O)C(=O)O)cc1 (stereo not drawn)	> 250 °C (dec.)	
COc1cccc(CC(Nc2nc3ccc(Cl)cc3cc2C(=O)O)C(=O)O)c1 (stereo not drawn)	165 to 170 °C (dec.)	
COc1ccccc1CC(Nc1nc2ccc(Cl)cc2cc1C(=O)O)C(=O)O (stereo not drawn)	> 180 °C (dec.)	
O=C(O)c1cccc(CC(Nc2nc3ccc(Cl)cc3cc2C(=O)O)C(=O)O)c1 (stereo not drawn)	> 250 °C (dec.)	
O=C(O)c1cc2cc(Cl)ccc2nc1NC(Cc1cccc(F)c1)C(=O)O (stereo not drawn)	177 to 181 °C	
O=C(O)c1cc2cc(Cl)ccc2nc1NC(Cc1cccnc1)C(=O)O (stereo not drawn)	> 170 °C (dec.)	
O=C(O)c1cc2cc(Cl)ccc2nc1N[C@@H](Cc1ccc(Oc2ncccc2C(=O)O)cc1)C(=O)O (as salt: salt) [Example 100, 2-{(S)-1-Carboxy-2-[4-(3-carboxy-pyridin-2-yloxy)-phenyl]-ethylamino}-6-chloro-quinoline-3-carboxylic acid]	> 166 °C (dec.)	
O=C(O)c1cc2cc(Cl)ccc2nc1N[C@H](Cc1ccccc1)C(=O)O [Example 6, 2-((R)-1-Carboxy-2-phenyl-ethylamino)-6-chloro-quinoline-3-carboxylic acid]		6.27
Cn1cc(C[C@H](Nc2nc3ccc(Cl)cc3cc2C(=O)O)C(=O)O)c2ccccc21 [Example 15, 2-[(S)-1-Carboxy-2-(1-methyl-1H-indol-3-yl)-ethylamino]-6-chloro-quinoline-3-carboxylic acid]		5.87
O=C(O)c1cc2cc(Cl)ccc2nc1N[C@@H](Cc1ccc(Cl)cc1)C(=O)O [Example 23, 2-[(S)-1-Carboxy-2-(4-chloro-phenyl)-ethylamino]-6-chloro-quinoline-3-carboxylic acid]		6.05
O=C(O)c1cc2cc(Cl)ccc2nc1NC(CCc1ccccc1)C(=O)O (stereo not drawn) [Example 28, 2-(1-Carboxy-3-phenyl-propylamino)-6-chloro-quinoline-3-carboxylic acid]	179 to 182 °C (dec.)	
O=C(O)c1cc2cc(Cl)ccc2nc1N[C@@H](Cc1ccc(O)cc1)C(=O)O [Example 34, 2-[(S)-1-Carboxy-2-(4-hydroxy-phenyl)-ethylamino]-6-chloro-quinoline-3-carboxylic acid]		5.78
O=C(O)c1cc2cc(Cl)c(Cl)cc2nc1N[C@H](Cc1c[nH]c2ccccc12)C(=O)O [Example 36, 2-[(R)-1-Carboxy-2-(1H-indol-3-yl)-ethylamino]-6,7-dichloro-quinoline-3-carboxylic acid]		5.94

Compound	melting point	pIC50 [1]
O=C(O)c1cc2ccccc2nc1N[C@H](Cc1ccccc1)C(=O)O [Example 44, 2-((R)-1-Carboxy-2-phenyl-ethylamino)-quinoline-3-carboxylic acid]	140 to 141.5 °C	
O=C(O)c1cc2cc(Cl)ccc2nc1NC(Cc1ccc(O)c(F)c1)C(=O)O (stereo not drawn) [Example 52, 2-[1-Carboxy-2-(3-fluoro-4-hydroxy-phenyl)-ethylamino]-6-chloro-quinoline-3-carboxylic acid]	> 160 °C (dec.)	
Cc1cc(C)n(CC(Nc2nc3ccc(Cl)cc3cc2C(=O)O)C(=O)O)n1 (stereo not drawn) [Example 57, 2-[1-Carboxy-2-(3,5-dimethyl-pyrazol-1-yl)-ethylamino]-6-chloro-quinoline-3-carboxylic acid]	> 200 °C (dec.)	
O=C(O)c1cc2cc(Cl)ccc2nc1NC(Cc1ccc(C#Cc2ccccc2)cc1)C(=O)O (stereo not drawn) [Example 62, 2-[1-Carboxy-2-(4-phenylethynyl-phenyl)-ethylamino]-6-chloro-quinoline-3-carboxylic acid]	164 to 173 °C	
COc1ccc(Cl)c(CC(Nc2nc3ccc(Cl)cc3cc2C(=O)O)C(=O)O)c1 (stereo not drawn) [Example 68, 2-[1-Carboxy-2-(2-chloro-5-methoxy-phenyl)-ethylamino]-6-chloro-quinoline-3-carboxylic acid]	180 to 185 °C	
O=C(O)c1cc2cc(Cl)ccc2nc1NC(Cc1cccc(Oc2nc3ccc(Cl)cc3cc2C(=O)O)c1)C(=O)O (stereo not drawn) [Example 81, 2-{2-[3-(3-carboxy-6-chloro-quinolin-2-yloxy)-phenyl]-1-carboxy-ethylamino}-6-chloro-quinoline-3-carboxylic acid]	186 to 197 °C (dec.)	
O=C(O)c1cc2cc(Cl)ccc2nc1NC(Cc1cccc(CC(Nc2nc3ccc(Cl)cc3cc2C(=O)O)C(=O)O)c1)C(=O)O (stereo not drawn) [Example 82, 2-{2-[3-[2-(3-Carboxy-6-chloro-quinolin-2-yl)amino-2-carboxy-ethyl]-phenyl]-1-carboxy-ethylamino}-6-chloro-quinoline-3-carboxylic acid]	> 185 °C (dec.)	
O=C(O)c1cc2cc(Cl)ccc2nc1NC(Cc1cccs1)C(=O)O (stereo not drawn) [Example 83, 2-(1-Carboxy-2-thiophen-2-yl-ethylamino)-6-chloro-quinoline-3-carboxylic acid]	> 250 °C (dec.)	
O=C(O)c1cc2cc(Cl)ccc2nc1NC(Cc1ccc(Oc2ccc3ccccc3n2)cc1)C(=O)O (stereo not drawn) [Example 96, 2-{1-Carboxy-2-[4-(quinolin-2-yloxy)-phenyl]-ethylamino}-6-chloro-quinoline-3-carboxylic acid]	136 °C	
O=C(O)c1cc2cc(Cl)ccc2nc1NC(Cc1ccc(Nc2ccc3ccccc3n2)cc1)C(=O)O (stereo not drawn) [Example 108, 2-{1-Carboxy-2-[4-(quinolin-2-ylamino)-phenyl]-ethylamino}-6-chloro-quinoline-3-carboxylic acid]		6.25
O=C(O)c1cc2cc(Cl)ccc2nc1NC(Cc1ccc(Oc2nc3ccccc3cc2C(=O)O)cc1)C(=O)O (stereo not drawn) [Example 110, 2-{1-Carboxy-2-[4-(3-carboxy-quinolin-2-yloxy)-phenyl]-ethylamino}-6-chloro-quinoline-3-carboxylic acid]		6.42
O=C(O)C[C@H](Nc1nc2ccc(Cl)cc2cc1C(=O)O)C(=O)O [Example 114, (S)-2-(3-Carboxy-6-chloro-quinolin-2-ylamino)-succinic acid ammonia hydrate]		6.14
O=C(O)c1cc2cc(Cl)cc(Cl)c2nc1NC(Cc1cccc(F)c1)C(=O)O (stereo not drawn) [Example 115, 2-[1-Carboxy-2-(3-fluoro-phenyl)-ethylamino]-6,8-dichloro-quinoline-3-carboxylic acid]		6.29
O=C(O)c1cc2cc(Cl)ccc2nc1NC(COCc1ccccc1)C(=O)Nc1ccccc1 (stereo not drawn) [Example 117, 2-(2-Benzyloxy-1-phenylcarbamoyl-ethylamino)-6-chloro-quinoline-3-carboxylic acid]	150 to 151 °C	
O=C(O)c1cc2cc(Cl)ccc2nc1N[C@@H](Cc1ccc(Oc2ccc3c(-c4ccccc4)nccc3n2)cc1)C(=O)O [Example 130, 2-{(S)-1-Carboxy-2-[4-(5-phenyl-[1,6]naphthyridin-2-yloxy)-phenyl]-ethylamino}-6-chloro-quinoline-3-carboxylic acid]		6.72
O=C(O)c1cc2cc(Cl)ccc2nc1NC(C(=O)O)C(C(=O)O)c1cc(F)cc(F)c1 (stereo not drawn) [Example 136, 2-(3-Carboxy-6-chloro-quinolin-2-ylamino)-3-(3,5-difluoro-phenyl)-succinic acid]	230 to 250 °C (dec.)	
